Experimental data from patent US20250049036A1 (priority 2021, published 2025).

What was measured:
[1] = system: Pyricularia oryzae; experiment: microbe, parasite or virus in culture; format: cell-based; settings: 168 h, read-out: control compared to the untreated check
[2] = system: Colletotrichum capsici; experiment: Colletotrichum capsici (anthracnose) mycelial radial growth on potato dextrose agar; format: cell-based; settings: Colletotrichum truncatum, 168 h, 25° C., seven days, read-out: control compared to the untreated check
Summary of the method: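 Compounds in 0.3% DMSO were mixed into potato dextrose agar, and each plate was seeded with a 5 mm mycelial disc from an actively growing culture. Plates were incubated at 25° C and 60% relative humidity for seven days. Radial growth was compared with untreated control.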

[3] = system: Alternaria solani; experiment: Alternaria solani test in tomato, preventive, greenhouse; format: in vivo; settings: preventive spray on tomato, inoculated one day after treatment, read-out: control (efficacy, disease severity) compared to the untreated check
Experimental: The respective compound was dissolved in 2% dimethyl sulfoxide/acetone and then mixed with water containing an emulsifier to the calibrated spray volume of 30 mL. Each spray solution was poured into a spray bottle for further application.
To test the preventive activity of a compound, healthy young tomato plants, raised in the greenhouse, were sprayed with the active compound preparation at the stated application rate inside the spray cabinets using hollow cone nozzles. One day after treatment, the plants were inoculated with a spore suspension containing 0.24×10^6 Alternaria solani inoculum. The inoculated plants were then kept in a greenhouse chamber at 22-24° C. temperature and 90-95% relative humidity for disease expression.
A visual assessment of the compound's performance was carried out by rating the disease severity (0 100% scale) on treated plants 3, 7, 10 and 15 days after application. Efficacy (% control) of the compound was calculated by comparing the disease rating in the treatment with the one of the untreated control. The treated plants were also assessed for plant damage by recording symptoms like necrosis, chlorosis and stunting.

[4] = system: Phytophthora infestans; experiment: whole plant or invertebrate; format: in vivo, Phytophthora infestans on tomato; settings: in Solanum lycopersicum, read-out: control (efficacy, disease severity) compared to the untreated check
[5] = system: Botrytis cinerea; experiment: Botrytis cinerea test on tomato, preventive, greenhouse; format: in vivo; settings: preventive spray on bean/chili plants (heading: tomato), inoculated one day after treatment, read-out: control (efficacy, disease severity) compared to the untreated check
[6] = system: Phakopsora pachyrhizi; experiment: Phakopsora pachyrhizi test on soybean, preventive, greenhouse; format: in vivo; settings: preventive spray on soybean, inoculated one day after treatment, read-out: control (efficacy, disease severity) compared to the untreated check
Summary of the method: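 Greenhouse-grown young soybean plants were sprayed with compound (2% DMSO/acetone, emulsifier in water) at the stated rate. One day later they were inoculated with 2×10^5 P. pachyrhizi inoculum and held at 22-24 °C, 80-90% relative humidity for disease development.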

[7] = system: Parastagonospora nodorum; experiment: Parastagonospora nodorum (PARANO) spore growth inhibition in liquid medium, 96-well microtiter plate, OD 600; format: cell-based; settings: spore suspension in PDB liquid medium, 18° C., 5-6 days, OD at 600, read-out: control compared to the untreated check
Summary of the method: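 Read-out is percent growth inhibition from OD at 600 after 5-6 days at 18° C. Compounds, dissolved in DMSO, were diluted in potato dextrose broth and combined in equal volume with a 10^5 spores/ml suspension of PARANO.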

[8] = system: Phytophthora infestans; experiment: microbe, parasite or virus in culture; format: cell-based; settings: 168 h, read-out: control compared to the untreated check
[9] = system: Alternaria solani; experiment: Alternaria solani (early blight of tomato/potato) mycelial radial growth on potato dextrose agar; format: cell-based; settings: 168 h, 25° C., seven days, read-out: control compared to the untreated check
Experimental: The compounds were dissolved in 0.3% dimethyl sulfoxide and then added to potato dextrose agar medium just prior to dispensing it into petri dishes. 5 mL medium, with the compound in the desired concentration, was dispensed into 60 mm sterile petri-plates. After solidification, each plate was seeded with a 5 mm size mycelial disc taken from the periphery of an actively growing virulent culture plate. The plates were incubated in growth chambers at 25° C. temperature and 60% relative humidity for seven days and the radial growth was measured and compared to the one of the untreated control.

[10] = system: Venturia Inequalis; experiment: Venturia inequalis (VENTIN) spore growth inhibition in liquid medium, 96-well microtiter plate, OD 600; format: cell-based; settings: spore suspension in PDB liquid medium, 18° C., 15-18 days, OD at 600, read-out: control compared to the untreated check
Experimental: Potato dextrose (PDB) liquid medium containing a VENTIN (10^5 spores/ml) spore suspension was prepared. For the inhibition assay, each test compound was solved in dimethyl sulfoxide. 100 μl of the test compound in media-solution was added to a 96-well microtiter plate, consequently, the same volume (100 μl) of spore suspension was added to the well making the final test concentrations and the treated plate was incubated at 18° C. for 15-18 days. The growth inhibition was evaluated by measuring the OD at 600. Percent inhibition was calculated with the below formula: […]

[11] = system: Botrytis cinerea; experiment: Botrytis cinerea (gray mold) mycelial radial growth on potato dextrose agar; format: cell-based; settings: 168 h, 22° C., seven days, read-out: control compared to the untreated check
Summary of the method: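 Compounds in 0.3% DMSO were mixed into potato dextrose agar, and plates were seeded with 5 mm mycelial discs from actively growing virulent culture. After seven days at 22 °C and 90% relative humidity, radial growth was measured relative to untreated control.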

[12] = system: Botrytis cinerea; experiment: Botrytis cinerea liq. (BOTRCI) spore growth inhibition in liquid medium, 96-well microtiter plate, OD 405 nm; format: cell-based; settings: spore suspension in YBA liquid medium, 22° C., 5-6 days, OD at 405 nm, read-out: control compared to the untreated check
Summary of the method: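 Spore suspension of B. cinerea (10^4 spores/ml) in YBA liquid medium mixed 1:1 with compound diluted from DMSO. Incubated at 22° C. for 5-6 days. Growth read as OD 405 nm; percent inhibition derived from treatment, untreated-control and blank readings.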

CC(c1ccccc1F)C(C)(C)NC(=O)c1cnc2c(ccn2C)c1 (centres unmarked) [Compound 3, N-(3-(2-fluorophenyl)-2-methylbutan-2-yl)-1-methyl-1H-pyrrolo[2,3-b]pyridine-5-carboxamide]
≥ 70%: inhibition of growth at 300 ppm [1] | inhibition of growth at 300 ppm [2] | pest or weed control at 500 ppm [3] | pest or weed control at 500 ppm [4]

Cn1ccc2cc(C(=O)NC(C)(C)Cc3cc(F)cc(F)c3)cnc21 [Compound 15, N-(1-(3,5-difluorophenyl)-2-methylpropan-2-yl)-1-methyl-1H-pyrrolo[2,3-b]pyridine-5-carboxamide]
≥ 70%: pest or weed control at 500 ppm [3]

Cn1ccc2cc(C(=O)NC(C)(C)Cc3ccc(OC(F)(F)F)cc3)cnc21 [Compound 19, 1-methyl-N-(2-methyl-1-(4-(trifluoromethoxy)phenyl)propan-2-yl)-1H-pyrrolo[2,3-b]pyridine-5-carboxamide]
≥ 70%: pest or weed control at 500 ppm [5] | pest or weed control at 500 ppm [3] | pest or weed control at 500 ppm [6]

Cn1ccc2cc(C(=O)NC(C)(C)Cc3cccc(F)c3)cnc21 [Compound 21, N-(1-(3-fluorophenyl)-2-methylpropan-2-yl)-1-methyl-1H-pyrrolo[2,3-b]pyridine-5-carboxamide]
≥ 70%: inhibition of growth at 300 ppm [1] | inhibition of growth at 300 ppm [2] | pest or weed control at 500 ppm [3] | pest or weed control at 500 ppm [6]

Cn1ccc2cc(C(=O)NC(C)(C)Cc3ccccc3Br)cnc21 [Compound 26]
≥ 70%: inhibition of growth at 300 ppm [7] | pest or weed control at 500 ppm [3] | pest or weed control at 500 ppm [6]

CC(C)(Cc1ccccc1)NC(=O)c1cnc2ccsc2c1 [Compound 30, N-(2-methyl-1-phenylpropan-2-yl)thieno[3,2-b] pyridine-6-carboxamide]
≥ 70%: inhibition of growth at 300 ppm [1] | inhibition of growth at 300 ppm [8] | pest or weed control at 500 ppm [5] | pest or weed control at 500 ppm [3]

Cn1ccc2cc(C(=O)NC(C)(C)Cc3ccc(Cl)cc3F)cnc21 [Compound 47, N-(1-(4-chloro-2-fluorophenyl)-2-methylpropan-2-yl)-1-methyl-1H-pyrrolo[2,3-b]pyridine-5-carboxamide]
≥ 70%: inhibition of growth at 300 ppm [1] | inhibition of growth at 300 ppm [9] | inhibition of growth at 300 ppm [7] | inhibition of growth at 300 ppm [10] | pest or weed control at 500 ppm [4] | pest or weed control at 500 ppm [6]

CC(C)CC(C)(Cc1ccccc1)NC(=O)c1cnc2c(c1)c(Br)cn2C (centres unmarked) [Compound 51, 3-bromo-N-(2,4-dimethyl-1-phenylpentan-2-yl)-1-methyl-1H-pyrrolo[2,3-b]pyridine-5-carboxamide]
≥ 70%: inhibition of growth at 300 ppm [1] | pest or weed control at 500 ppm [3] | pest or weed control at 500 ppm [6]

Cn1cc(Cl)c2cc(C(=O)NC(C)(C)Cc3ccccc3F)cnc21 [Compound 59, 3-chloro-N-(1-(2-fluorophenyl)-2-methylpropan-2-yl)-1-methyl-1H-pyrrolo[2,3-b]pyridine-5-carboxamide]
≥ 70%: inhibition of growth at 300 ppm [1] | pest or weed control at 500 ppm [3] | pest or weed control at 500 ppm [6]

CC(C)CC(C)(Cc1ccccc1)NC(=O)c1cnc2cc[nH]c2c1 (centres unmarked) [Compound 73, N-(2,4-dimethyl-1-phenylpentan-2-yl)-1H-pyrrolo[3,2-b]pyridine-6-carboxamide]
≥ 70%: inhibition of growth at 300 ppm [11] | inhibition of growth at 300 ppm [2] | inhibition of growth at 300 ppm [8] | inhibition of growth at 300 ppm [7] | inhibition of growth at 300 ppm [10] | inhibition of growth at 300 ppm [12] | pest or weed control at 500 ppm [5] | pest or weed control at 500 ppm [3] | pest or weed control at 500 ppm [4]

CC(Cc1ccccc1)C(C)(C)NC(=O)c1cnc2c(ccn2C)c1 (centres unmarked) [Compound 80, N-(2,3-dimethyl-4-phenylbutan-2-yl)-1-methyl-1H-pyrrolo[2,3-b]pyridine-5-carboxamide]
≥ 70%: inhibition of growth at 300 ppm [2] | inhibition of growth at 300 ppm [7] | inhibition of growth at 300 ppm [10] | pest or weed control at 500 ppm [3] | pest or weed control at 500 ppm [4]

CC(C)(NC(=O)c1cnc2ccsc2c1)C(O)c1ccccc1 (centres unmarked) [Compound 118, N-(1-hydroxy-2-methyl-1-phenylpropan-2-yl)thieno[3,2-b] pyridine-6-carboxamide]
≥ 70%: inhibition of growth at 300 ppm [11] | inhibition of growth at 300 ppm [7] | inhibition of growth at 300 ppm [12] | pest or weed control at 500 ppm [3]

C=C(C)CC(C)(COc1ccc(F)cc1)NC(=O)c1cc2cc[nH]c2nc1C (centres unmarked) [Compound 128, N-(1-(4-fluorophenoxy)-2,4-dimethylpent-4-en-2-yl)-6-methyl-1H-pyrrolo[2,3-b]pyridine-5-carboxamide]
≥ 70%: pest or weed control at 500 ppm [5] | pest or weed control at 500 ppm [3]

CCC(O)(CC)C(NC(=O)c1cnc2c(ccn2C)c1)c1ccc(F)cc1 (centres unmarked) [Compound 131, N-(2-ethyl-1-(4-fluorophenyl)-2-hydroxybutyl)-1-methyl-1H-pyrrolo[2,3-b]pyridine-5-carboxamide]
≥ 70%: inhibition of growth at 300 ppm [1] | pest or weed control at 500 ppm [3] | pest or weed control at 500 ppm [6]

CCC(O)(CC)C(NC(=O)c1cnc2ccsc2c1)c1ccc(F)cc1 (centres unmarked) [Compound 132, N-(2-ethyl-1-(4-fluorophenyl)-2-hydroxybutyl)thieno [3,2-b]pyridine-6-carboxamide]
≥ 70%: inhibition of growth at 300 ppm [10] | pest or weed control at 500 ppm [3] | pest or weed control at 500 ppm [6]

C=C(C)CC(C)(Cc1ccccc1F)NC(=O)c1cnc2cc[nH]c2c1 (centres unmarked) [Compound 144, N-(1-(2-fluorophenyl)-2,4-dimethylpent-4-en-2-yl)-1H-pyrrolo[3,2-b] pyridine-6-carboxamide]
≥ 70%: inhibition of growth at 300 ppm [11] | inhibition of growth at 300 ppm [9] | inhibition of growth at 300 ppm [2] | inhibition of growth at 300 ppm [8] | inhibition of growth at 300 ppm [7] | inhibition of growth at 300 ppm [10] | inhibition of growth at 300 ppm [12] | pest or weed control at 500 ppm [5] | pest or weed control at 500 ppm [4] | pest or weed control at 500 ppm [6]

Cc1ccccc1C(=O)OCC(C)(C)NC(=O)c1cnc2c(c1)CCCC2 [Compound 151, 2-methyl-2-(5,6,7,8-tetrahydroquinoline-3-carboxamido)propyl 2-methylbenzoate]
≥ 70%: inhibition of growth at 300 ppm [7] | pest or weed control at 500 ppm [5] | pest or weed control at 500 ppm [3] | pest or weed control at 500 ppm [6]

Cn1cc(Cl)c2cc(C(=O)NC(C)(C)COC(=O)c3cccc(F)c3)cnc21 [Compound 153, 2-(3-chloro-1-methyl-1H-pyrrolo[2,3-b]pyridine-5-carboxamido)-2-methylpropyl 3-fluorobenzoate]
≥ 70%: inhibition of growth at 300 ppm [7] | pest or weed control at 500 ppm [5] | pest or weed control at 500 ppm [3]
